Source: PubChem BioAssay AID248 (DTP/NCI, 2004)
Inconclusive results and toxic doses are left out. No stated cut-off is given here; in the data, active means T/C of 150% or more; inactive means T/C below 125%.

Tested on: L1210 leukemia ip in BDF1 mice, survival T/C
Test: NCI In Vivo Anticancer Drug Screen. Data for tumor model L1210 Leukemia (intraperitoneal) in B6D2F1 (BDF1) mice
Conditions: endpoint: mean survival time, higher = longer survival
In short: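 Transplanted-tumor mice were given test agent; controls received vehicle only. Survival readings from the two groups were divided (treated over control).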

[1] = dose: 100.0 mg/kg/injection, schedule: Q01DX009 (ip), vehicle: saline with Tween-80
[2] = dose: 100.0 mg/kg/injection, schedule: Q04DX002 (ip), vehicle: saline
[3] = dose: 200.0 mg/kg/injection, schedule: Q01DX009 (ip), vehicle: saline with Tween-80
[4] = dose: 200.0 mg/kg/injection, schedule: Q04DX002 (ip), vehicle: saline
[5] = dose: 400.0 mg/kg/injection, schedule: Q04DX002 (ip), vehicle: saline
[6] = dose: 100.0 mg/kg/injection, schedule: Q01DX001 (ip), vehicle: saline
[7] = dose: 200.0 mg/kg/injection, schedule: Q01DX001 (ip), vehicle: saline
[8] = dose: 25.0 mg/kg/injection, schedule: Q01DX009 (ip), vehicle: saline with Tween-80
[9] = dose: 50.0 mg/kg/injection, schedule: Q01DX009 (ip), vehicle: saline with Tween-80
[10] = dose: 100.0 mg/kg/injection, schedule: Q04DX003 (ip), vehicle: saline with Tween-80
[11] = dose: 200.0 mg/kg/injection, schedule: Q04DX003 (ip), vehicle: saline with Tween-80
[12] = dose: 400.0 mg/kg/injection, schedule: Q04DX003 (ip), vehicle: saline with Tween-80
[13] = dose: 50.0 mg/kg/injection, schedule: Q01DX001 (ip), vehicle: carboxymethylcellulose (CMC)
[14] = dose: 100.0 mg/kg/injection, schedule: Q01DX001 (ip), vehicle: carboxymethylcellulose (CMC)
[15] = dose: 100.0 mg/kg/injection, schedule: Q01DX009 (ip), vehicle: Klucel (hydroxypropylcellulose) (HPC)
[16] = dose: 100.0 mg/kg/injection, schedule: Q04DX003 (ip), vehicle: Klucel (hydroxypropylcellulose) (HPC)
[17] = dose: 200.0 mg/kg/injection, schedule: Q01DX001 (ip), vehicle: carboxymethylcellulose (CMC)
[18] = dose: 200.0 mg/kg/injection, schedule: Q01DX009 (ip), vehicle: Klucel (hydroxypropylcellulose) (HPC)
[19] = dose: 200.0 mg/kg/injection, schedule: Q04DX003 (ip), vehicle: Klucel (hydroxypropylcellulose) (HPC)
[20] = dose: 400.0 mg/kg/injection, schedule: Q01DX001 (ip), vehicle: carboxymethylcellulose (CMC)
[21] = dose: 400.0 mg/kg/injection, schedule: Q01DX009 (ip), vehicle: Klucel (hydroxypropylcellulose) (HPC)
[22] = dose: 400.0 mg/kg/injection, schedule: Q04DX003 (ip), vehicle: Klucel (hydroxypropylcellulose) (HPC)
[23] = dose: 50.0 mg/kg/injection, schedule: Q01DX001 (ip), vehicle: saline
[24] = dose: 400.0 mg/kg/injection, schedule: Q01DX001 (ip), vehicle: saline
[25] = dose: 100.0 mg/kg/injection, schedule: Q04DX002 (ip), vehicle: Klucel (hydroxypropylcellulose) (HPC)
[26] = dose: 200.0 mg/kg/injection, schedule: Q04DX002 (ip), vehicle: Klucel (hydroxypropylcellulose) (HPC)
[27] = dose: 400.0 mg/kg/injection, schedule: Q04DX002 (ip), vehicle: Klucel (hydroxypropylcellulose) (HPC)
[28] = dose: 100.0 mg/kg/injection, schedule: Q04DX003 (ip), vehicle: saline
[29] = dose: 200.0 mg/kg/injection, schedule: Q04DX003 (ip), vehicle: saline

Measured: T/C

Cc1nc(=S)[nH][nH]1
inactive: [1] 102 % of control | [2] 103 % of control | [3] 122 % of control | [4] 94 % of control | dose: 400.0 mg/kg/injection, schedule: Q01DX009 (ip), vehicle: saline with Tween-80 96 % of control | [5] 87 % of control

N#CC1(C(N)=O)OC1c1ccccc1Cl (configuration not stated)
inactive: dose: 100.0 mg/kg/injection, schedule: Q04DX003 (ip), vehicle: carboxymethylcellulose (CMC) 97 % of control | dose: 200.0 mg/kg/injection, schedule: Q04DX003 (ip), vehicle: carboxymethylcellulose (CMC) 98 % of control

Cc1ccc(C(C)C)c(OCCN2CC=CC2)c1
inactive: [6] 98 % of control | [7] 94 % of control

O=C(Nc1ccccc1)Nc1cccc([N+](=O)[O-])c1
inactive: [2] 100 % of control | [4] 92 % of control | [5] 103 % of control

OC1COC(Cl)C(O)C1O (configuration not stated)
inactive: [8] 96 % of control | [9] 97 % of control | [1] 94 % of control | [10] 91 % of control | [11] 88 % of control

[O-][N+](=C(c1ccccc1)c1ccccc1)c1ccccc1
inactive: [10] 101 % of control | [11] 93 % of control | [12] 90 % of control

CCCCCCOC(CN(C)C)C(Cl)(Cl)Cl (configuration not stated)
inactive: [1] 101 % of control | [10] 93 % of control | [3] 98 % of control | [11] 95 % of control | [12] 98 % of control

CC(C)/C=C/C1(C(C)C)C(=O)NC(=O)NC1=O
inactive: dose: 75.0 mg/kg/injection, schedule: Q01DX001 (ip), vehicle: carboxymethylcellulose (CMC) 94 % of control | dose: 150.0 mg/kg/injection, schedule: Q01DX001 (ip), vehicle: carboxymethylcellulose (CMC) 94 % of control

CCOC(=O)C(=N\Nc1ccc(Cl)cc1Cl)/C(C)=N\NC(N)=S
inactive: dose: 75.0 mg/kg/injection, schedule: Q01DX001 (ip), vehicle: saline 95 % of control | dose: 300.0 mg/kg/injection, schedule: Q01DX001 (ip), vehicle: saline 104 % of control

CC(C)CCS(=O)(=O)OCCCCOS(=O)(=O)CCC(C)C
inactive: [13] 109 % of control | [14] 104 % of control | [15] 106 % of control | [16] 105 % of control | [17] 101 % of control | [18] 102 % of control | [19] 105 % of control | [20] 103 % of control | [21] 109 % of control | [22] 106 % of control

O=[N+]([O-])c1ccc(Oc2ccc(F)cc2)c([N+](=O)[O-])c1
inactive: [23] 103 % of control | [6] 103 % of control | [7] 97 % of control | [24] 105 % of control

C/C=C\C=C\C(=O)O
inactive: [25] 97 % of control | [26] 94 % of control | [27] 103 % of control

CN(C)C=Nc1ccc(F)cc1
inactive: [13] 94 % of control | [14] 102 % of control | [17] 104 % of control | [20] 105 % of control

O=C1NC(=O)C(=Cc2ccccc2)C(=O)N1
inactive: dose: 100.0 mg/kg/injection, schedule: Q04DX002 (ip), vehicle: saline with Tween-80 98 % of control | dose: 200.0 mg/kg/injection, schedule: Q01DX Z (ip), vehicle: methylcellulose (MC) 94 % of control | dose: 200.0 mg/kg/injection, schedule: Q04DX002 (ip), vehicle: saline with Tween-80 106 % of control

OC[P+](c1ccccc1)(c1ccccc1)c1ccccc1
inactive: [28] 98 % of control | [29] 98 % of control

COc1c2c(cc3c1OCO3)C13CCN(C2)C1CC(OC)C1OC13 (configuration not stated)
inactive: dose: 5.0 mg/kg/injection, schedule: Q01DX001 (ip), vehicle: other 97 % of control | dose: 10.0 mg/kg/injection, schedule: Q01DX001 (ip), vehicle: other 109 % of control | dose: 20.0 mg/kg/injection, schedule: Q01DX001 (ip), vehicle: other 97 % of control | dose: 40.0 mg/kg/injection, schedule: Q01DX001 (ip), vehicle: other 90 % of control | dose: 80.0 mg/kg/injection, schedule: Q01DX001 (ip), vehicle: other 89 % of control

O=[N+]([O-])c1ccc2scnc2c1
inactive: dose: 100.0 mg/kg/injection, schedule: Q01DX001 (ip), vehicle: acetone 98 % of control | dose: 100.0 mg/kg/injection, schedule: Q04DX003 (ip), vehicle: acetone 107 % of control | dose: 200.0 mg/kg/injection, schedule: Q01DX001 (ip), vehicle: acetone 92 % of control | dose: 200.0 mg/kg/injection, schedule: Q04DX003 (ip), vehicle: acetone 89 % of control | dose: 400.0 mg/kg/injection, schedule: Q01DX001 (ip), vehicle: acetone 95 % of control | dose: 400.0 mg/kg/injection, schedule: Q04DX003 (ip), vehicle: acetone 96 % of control

C1CCC2(CC1)CCNCC2
inactive: [23] 102 % of control

O=C1CSc2ccccc2N1
inactive: dose: 12.5 mg/kg/injection, schedule: Q01DX009 (ip), vehicle: saline with Tween-80 94 % of control | [8] 100 % of control | [9] 102 % of control | dose: 50.0 mg/kg/injection, schedule: Q04DX003 (ip), vehicle: saline with Tween-80 103 % of control | [25] 97 % of control | [10] 103 % of control | [26] 95 % of control | [11] 92 % of control | [27] 110 % of control

CCCCCOC(=O)COc1ccc(Cl)cc1
inactive: [25] 98 % of control | [26] 98 % of control | [27] 103 % of control

CNC(=O)N(C)c1cc(N(C)C)nc(OC)n1
inactive: dose: 5.0 mg/kg/injection, schedule: Q01DX009 (ip), vehicle: Klucel (hydroxypropylcellulose) (HPC) 98 % of control | dose: 10.0 mg/kg/injection, schedule: Q01DX009 (ip), vehicle: Klucel (hydroxypropylcellulose) (HPC) 94 % of control | dose: 20.0 mg/kg/injection, schedule: Q01DX009 (ip), vehicle: Klucel (hydroxypropylcellulose) (HPC) 94 % of control

CC(C)=CCC(C)c1ccccn1 (configuration not stated)
inactive: [6] 100 % of control | [7] 100 % of control | [24] 97 % of control

O=C(NCc1ccccc1)Nc1ccccc1
inactive: [16] 96 % of control | [19] 100 % of control | [22] 96 % of control

CSc1nc(NC(=O)CCl)cc(NC(=O)CCl)n1
inactive: dose: 12.5 mg/kg/injection, schedule: Q01DX005 (ip), vehicle: saline 105 % of control | dose: 25.0 mg/kg/injection, schedule: Q01DX005 (ip), vehicle: saline 112 % of control

COC(=O)/C=C(\C)Nc1ccc([N+](=O)[O-])cc1
inactive: [6] 97 % of control | [7] 93 % of control | [24] 92 % of control

O=C(c1ccc([N+](=O)[O-])cc1)C(Br)C(Br)c1ccncc1 (configuration not stated)
inactive: [15] 89 % of control | [18] 89 % of control | [21] 93 % of control

Cc1ccc(Br)cc1Br
inactive: [6] 96 % of control | [7] 100 % of control | [24] 94 % of control

Nc1cccc(COc2ccccc2)c1
inactive: [28] 90 % of control | [29] 92 % of control
